Results from US20100048575A1, “NOVEL TETRACYCLIC INHIBITORS OF CYSTEINE PROTEASES, THE PHARMACEUTICAL COMPOSITIONS THEREOF AND THEIR THERAPEUTIC APPLICATIONS” (priority 2006, published 2010).

Experiments:
Cathepsin B = Cathepsin B (Homo sapiens, UniProt P07858); test: Cathepsin B activity assay (z-RR-AMC); type: biochemical; settings: 36 μM z-RR-AMC, 3.6 nM enzyme, 30 min pre-incubation, 60 min at 37° C., sigmoidal fit; read-out: cathepB (inhibition of cysteine protease activity)
Experimental: Cathepsin B was diluted in Cathepsin B buffer (20 mM Tris HCl pH 6.8; 1 mM EDTA; 1 mM DTT). Compounds stocks (100 mM) were stored at −20° C. in DMSO. Compounds were tested at the following final concentrations: 100 μM; 33.3 μM; 11.1 μM; 3.7 μM; 1.23 μM; 412 nM; 137 nM; 45.7 nM; 15.2 nM; 5 nM. Reactions were performed as duplicates in Black LJL 96 well plates (HE microplates; Molecular Devices; 20 μl final reaction volume). The substrate concentration for cathepsin B specificity assay was 36 μM (z-RR-AMC; Calbiochem). The concentration of the enzyme (Cathepsin B) in specificity assays was 3.6 nM. The concentrations were determined in order to perform specificity assays under initial velocities at fixed substrate concentration. Compounds were pre-incubated with enzymes for 30 minutes at 25° C. Reactions were initiated by addition of substrate to the plates containing the enzymes (+/−compounds) diluted in assay buffer. Reactions were incubated for 60 minutes at 37° C. Reactions were stopped by adding acetic acid (100 mM final). Readings were performed on a Pherastar Fluorescent Reader (BMG). δ Emission 380 nm; δ Excitation=460 nm. Data (mean values +/−standard deviation) were analyzed as % of control (no compound) and plotted as percentage versus the Log of the compound concentration using GraphPad (Prism). Data were fitted to a sigmoidal model (variable slope).

[1] = tested on: HCT116 colon cancer cells; test: HCT116 cell viability and proliferation assay (MTS); type: cell-based; settings: Homo sapiens, HCT-116, 72 hours, mean of 3 independent experiments, read-out: HCT116 GI50 D3
Experimental: HCT116 colon cancer cells were obtained from ATCC (American Type Culture Collection), and maintained in Mc Coy's 5A medium containing 10% FBS, 3 mM glutamine and 1% penicillin/streptomycin. Cells were incubated at 37° C. in a humidified atmosphere containing 5% CO2.
Cell viability was assayed using the MTS technique in 96-well culture plates (CellTiter 96® Aqueous Non-Radioactive Cell Proliferation Assay, Promega) according to the manufacturer's instructions. MTS (3-(4,5-dimethylthiazol-2-yl)-5-(3-carboxymethoxyphenyl)-2-(4-sulfophenyl)-2H-tetrazolium) is a MTT-derived tetrazolium that is reduced in metabolically active cells into a soluble, cell-permeant formazan. The amount of formazan, detected by its absorbance at 492 nm is proportional to the number of living, metabolically active cells.
10^3 HCT116 cells were seeded per well. 24 hours later, the medium was changed and the cells treated in triplicate with the following concentrations of each compound: 10 μM-3.33 μM-1.11 μM-370 nM-123 nM-41 nM-14 nM and 5 nM. The compounds were diluted in 100% DMSO, whose final concentration on cells was kept at 0.5%.
Cells were incubated with the compounds for 72 hours, and their viability then assayed by the addition of MTS for 2 hours. Absorbance at 492 nm was measured directly from the 96-well culture plates. GI50 (Growth Inhibition 50) concentrations for each compound were calculated using a sigmoidal variable slope fit (Prism 4.0, Graphpad Softwares). Values represent mean of 3 independent experiments.

Structure (SMILES)	IC50 (Cathepsin B) [nM]	GI50 [1] [nM]
C=CCON=C1c2ccccc2-c2nn3nnnc3nc21 (mixture of isomers) [compound 6, 1,2,3,3a,4,10-hexaaza-cyclopenta[b]fluoren-9-one O-allyl-oxime]	300	96
C=CCON=C1c2ccccc2-c2nn3c(C)nnc3nc21 (mixture of isomers) [5b, 3-Methyl-1,2,3a,4,10-pentaaza-cyclopenta[b]fluoren-9-one O-allyl-oxime]	–	1640
c1ccc(OCCCON=C2c3ccccc3-c3nn4nnnc4nc32)cc1 (mixture of isomers) [8c, 1,2,3,3a,4,10-Hexaaza-cyclopenta[b]fluoren-9-one O-(3-phenoxy-propyl)-oxime]	3800	265
C=CCON=C1c2ccccc2-c2nn3c(CC)nnc3nc21 (mixture of isomers) [10f, 3-Ethyl-1,2,3a,4,10-pentaaza-cyclopenta[b]fluoren-9-one O-allyl-oxime]	–	2100
C=CCON=C1c2ccccc2-c2nn3c(CCCC)nnc3nc21 (mixture of isomers) [5d, 3-Butyl-1,2,3a,4,10-pentaaza-cyclopenta[b]fluoren-9-one O-allyl-oxime]	6700	1010
ON=C1c2ccccc2-c2nn3nnnc3nc21 (mixture of isomers) [compound 7, 1,2,3,3a,4,10-hexaaza-cyclopenta[b]fluoren-9-one oxime]	890	363
CCc1nnc2nc3c(nn12)-c1ccccc1C3=NOCc1ccccc1 (mixture of isomers) [10h, 3-Ethyl-1,2,3a,4,10-pentaaza-cyclopenta[b]fluoren-9-one O-benzyl-oxime]	–	1910
COCCON=C1c2ccccc2-c2nn3nnnc3nc21 (mixture of isomers) [8b, 1,2,3,3a, 4,10-Hexaaza-cyclopenta[b]fluoren-9-one O-(2-methoxy-ethyl)-oxime]	2100	273
CCON=C1c2ccccc2-c2nn3c(CC)nnc3nc21 (mixture of isomers) [10d, 3-Ethyl-1,2,3a,4,10-pentaaza-cyclopenta[b]fluoren-9-one O-ethyl-oxime]	–	3930
CCCCCCCCCCON=C1c2ccccc2-c2nn3nnnc3nc21 (mixture of isomers) [8a, 1,2,3,3a, 4,10-Hexaaza-cyclopenta[b]fluoren-9-one O-decyl-oxime]	15800	398
CCc1nnc2nc3c(nn12)-c1ccccc1C3=NOC (mixture of isomers) [10b, 3-Ethyl-1,2,3a,4,10-pentaaza-cyclopenta[b]fluoren-9-one O-methyl-oxime]	–	3360
CON=C1c2ccccc2-c2nn3c(C)nnc3nc21 (mixture of isomers) [5a, 3-Methyl-1,2,3a,4,10-pentaaza-cyclopenta[b]fluoren-9-one O-methyl-oxime]	2600	1400
